Source: patent US12643879B2, “Functionalized heterocyclic compounds as modulators of stimulator of interferon genes (STING)” (RYVU THERAPEUTICS S.A., priority 2019, dated 2026)
Counter-ions that a name gives are not always drawn. Like-named read-outs stand apart in the source and are kept apart here.

Key:
[1] = test system: NF-κB pathway in THP-1 dual cells; test: THP-1 Dual reporter assay, NF-κB pathway (SEAP); format: cell-based; details: for EC50: Homo sapiens, THP1-Dual, read-out: THP1 Dual EC50 (μM) NFkB
In short: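 Compounds (STING agonists) stimulated THP-1 dual cells for 18 h; the cells carry an ISG54 promoter/ISRE-driven luciferase (IRF) and an IFN-β minimal promoter/NF-κB element-driven SEAP. Luciferase in conditioned medium was read by luminescence immediately; SEAP by absorbance at 630 or 655 nm after 1 or 2 h at 37° C.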

human STING = human STING (Homo sapiens, UniProt Q86WV6); test: Fluorescence Thermal Shift assay (binding to STING); details: STING 0.1 mg/mL, SyproOrange, 25 to 99° C.
Procedure: Compounds, constructs and conjugates of the present invention were tested for binding to human STING in Fluorescence Thermal Shift assay. STING was preincubated with the compounds for 20 minutes in 50 mM Hepes, 150 mM NaCl, pH 7.5 in 15 or 16 μl volume, following by adding 4 μl of SyproOrange dye dilution (ThermoFisher, cat no. S-6651). Final STING concentration was 0.1 mg/mL. Thermal unfolding was performed in Real-Time PCR QuantStudio 6 Flex System (Applied Biosystems), from 25 to 99° C., with continuous ramp mode and ramp rate 0.033° C./s. The data were analyzed using Protein Thermal Shift Software (ThermoFisher).

[2] = test system: interferon regulatory factor (IRF) pathway in THP-1 dual cells; test: THP-1 Dual reporter assay, IRF pathway (luciferase); format: cell-based; details: for EC50: Homo sapiens, THP1-Dual, read-out: THP1 Dual EC50 (μM) IRF
In short: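 After 18 h stimulation with STING agonist, culture medium was sampled. IRF activity was read as luminescence of ISG54/ISRE-driven luciferase right after adding reagent; NF-κB activity as absorbance at 630 or 655 nm of SEAP (IFN-β minimal promoter with NF-κB elements) after 1 or 2 h at 37° C.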

[3] = 18 h stimulation, absorbance at 630 or 655 nm

human STING, sequence (Q86WV6 whole entry H232R): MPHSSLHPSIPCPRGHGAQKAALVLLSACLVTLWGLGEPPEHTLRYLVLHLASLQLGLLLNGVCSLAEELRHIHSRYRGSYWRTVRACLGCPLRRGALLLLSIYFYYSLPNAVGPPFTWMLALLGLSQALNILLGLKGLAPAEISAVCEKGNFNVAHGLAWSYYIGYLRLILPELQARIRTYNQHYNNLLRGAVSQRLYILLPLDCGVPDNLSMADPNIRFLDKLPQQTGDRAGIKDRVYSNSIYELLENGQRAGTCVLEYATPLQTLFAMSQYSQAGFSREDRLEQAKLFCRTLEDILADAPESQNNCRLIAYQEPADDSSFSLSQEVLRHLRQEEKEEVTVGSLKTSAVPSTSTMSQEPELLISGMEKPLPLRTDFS

Row | SMILES | EC50 [1, 3] | hSTING FTS binding assay (ΔT C. °) (human STING) | EC50 ([2]; 18 h stimulation, luminescence) | THP1 Dual EC50 (μM) NFkB [1, 3] | THP1 Dual EC50 (μM) IRF ([2]; 18 h stimulation, luminescence) | EC50 ([1]; 18 h) | EC50 ([2]; 18 h)
1 | Cc1ccc(N2CCC[C@H](N(Cc3ccnc(C)c3)Cc3cn(C)c4cc(N5CC[C@@H](O)C5)ccc4c3=O)C2)cn1 [Example 23, 7-[(3R)-3-hydroxypyrrolidin-1-yl]-1-methyl-3-({[(3S)-1-(6-methylpyridin-3-yl)piperidin-3-yl][(2-methylpyridin-4-yl)methyl]amino}methyl)-1,4-dihydroquinolin-4-one] | < 1 µM | ++ (++=10<ΔTm <20° C.) | < 1 µM | – | – | – | –
2 | Cc1cc(CN(Cc2cn(C3CC3)c3cc(N4CC[C@@H](O)C4)c(F)cc3c2=O)[C@H]2CCCN(c3cccnc3)C2)ccn1 [Example 78, 1-Cyclopropyl-6-fluoro-7-[(3R)-3-hydroxypyrrolidin-1-yl]-3-({[(2-methylpyridin-4-yl)methyl][(3S)-1-(pyridin-3-yl)piperidin-3-yl]amino}methyl)-1,4-dihydroquinolin-4-one] | < 1 µM | +++ (+++=ΔTm ≥20° C.) | < 1 µM | – | – | – | –
3 | Cc1ccc(N2CCC[C@H](N(Cc3ccnc(C)c3)Cc3cn(C4CC4)c4cc(OCCO)c(F)cc4c3=O)C2)cn1 [Example 47, 1-Cyclopropyl-6-fluoro-7-(2-hydroxyethoxy)-3-({[(3S)-1-(6-methylpyridin-3-yl)piperidin-3-yl][(2-methylpyridin-4-yl)methyl]amino}methyl)-1,4-dihydroquinolin-4-one] | – | +++ (+++=ΔTm ≥20° C.) | – | + + + | + + + | – | –
4 | Cc1cc(CN(Cc2cn(C)c3cc(N4CCC(C(=O)O)CC4)ccc3c2=O)[C@H]2CCCN(c3cccnc3)C2)ccn1 [Example 46, 1-[1-methyl-3-({[(2-methylpyridin-4-yl)methyl][(3S)-1-(pyridin-3-yl)piperidin-3-yl]amino}methyl)-4-oxo-1,4-dihydroquinolin-7-yl]piperidine-4-carboxylic acid] | – | ++ (++=10<ΔTm <20° C.) | – | – | – | > 10 µM | > 10 µM
5 | Cc1cc(CN(Cc2cn(C)c3cc(Br)ccc3c2=O)[C@H]2CCCN(c3ccc(N)nc3)C2)ccn1.Cl [Example 29, 3-({[(3S)-1-(6-aminopyridin-3-yl)piperidin-3-yl][(2-methylpyridin-4-yl)methyl]amino}methyl)-7-bromo-1-methyl-1,4-dihydroquinolin-4-one hydrochloride] | < 1 µM | +++ (+++=ΔTm ≥20° C.) | < 1 µM | – | – | – | –
6 | Cc1ccc(N2CCC[C@H](N(Cc3ccnc(C)c3)Cc3cn(C4CC4)c4cc(NCCN(C)C)c(F)cc4c3=O)C2)cn1 [Example 9, 1-Cyclopropyl-7-{[2-(dimethylamino)ethyl]amino}-6-fluoro-3-({[(3S)-1-(6-methylpyridin-3-yl)piperidin-3-yl][(2-methylpyridin-4-yl)methyl]amino}methyl)-1,4-dihydroquinolin-4-one] | < 1 µM | +++ (+++=ΔTm ≥20° C.) | < 1 µM | – | – | – | –
7 | Cc1ccc(N2CCC[C@H](N(Cc3ccnc(C)c3)Cc3cn(C4CC4)c4cc(N5CC(N)C6(CC6)C5)c(F)cc4c3=O)C2)cn1.Cl (stereo partly drawn) [Example 22, 7-{7-amino-5-azaspiro[2.4]heptan-5-yl}-1-cyclopropyl-6-fluoro-3-({[(3S)-1-(6-methylpyridin-3-yl)piperidin-3-yl][(2-methylpyridin-4-yl)methyl]amino}methyl)-1,4-dihydroquinolin-4-one hydrochloride] | < 1 µM | +++ (+++=ΔTm ≥20° C.) | < 1 µM | – | – | – | –
8 | Cc1ccc(N2CCC[C@H](N(Cc3ccnc(C)c3)Cc3cn(C4CC4)c4cc(N5CC[C@H](N)C5)c(F)cc4c3=O)C2)cn1.Cl [Example 13, 7-[(3S)-3-Aminopyrrolidin-1-yl]-1-cyclopropyl-6-fluoro-3-({[(3S)-1-(6-methylpyridin-3-yl)piperidin-3-yl][(2-methylpyridin-4-yl)methyl]amino}methyl)-1,4-dihydroquinolin-4-one hydrochloride] | < 1 µM | +++ (+++=ΔTm ≥20° C.) | < 1 µM | – | – | – | –
9 | CNC1CCN(c2cc3c(cc2F)c(=O)c(CN(Cc2ccnc(C)c2)[C@H]2CCCN(c4ccc(C)nc4)C2)cn3C2CC2)CC1.Cl [Example 19, 1-cyclopropyl-6-fluoro-7-[4-(methylamino)piperidin-1-yl]-3-({[(3S)-1-(6-methylpyridin-3-yl)piperidin-3-yl][(2-methylpyridin-4-yl)methyl]amino}methyl)-1,4-dihydroquinolin-4-one hydrochloride] | < 1 µM | +++ (+++=ΔTm ≥20° C.) | < 1 µM | – | – | – | –
10 | Cc1cc(CN(Cc2cn(C(C)C)c3ccccc3c2=O)[C@H]2CCCN(c3ccc(N)nc3)C2)ccn1.Cl [Example 34, 3-({[(3S)-1-(6-aminopyridin-3-yl)piperidin-3-yl][(2-methylpyridinyl-4-yl)methyl]amino}methyl)-1-(propan-2-yl)-1,4-dihydroquinolin-4-one hydrochloride] | < 1 µM | +++ (+++=ΔTm ≥20° C.) | < 1 µM | – | – | – | –
11 | Cc1ccc(N2CCC[C@H](N(Cc3ccnc(C)c3)Cc3cn(C4CC4)c4cc(N5CCCC(C(=O)O)C5)c(F)cc4c3=O)C2)cn1 (stereo partly drawn) [Example 66, 1-[1-cyclopropyl-6-fluoro-3-({[(3S)-1-(6-methylpyridin-3-yl)piperidin-3-yl][(2-methylpyridin-4-yl)methyl]amino}methyl)-4-oxo-1,4-dihydroquinolin-7-yl]piperidine-3-carboxylic acid] | 1 to 10 µM | +++ (+++=ΔTm ≥20° C.) | 1 to 10 µM | – | – | – | –
12 | Cc1ccc(N2CCC[C@H](N(Cc3ccnc(C)c3)Cc3cn(C4CC4)c4cc(N5CC[C@H](CN)C5)c(F)cc4c3=O)C2)cn1 [Example 15, 7-[(3R)-3-(Aminomethyl)pyrrolidin-1-yl]-1-cyclopropyl-6-fluoro-3-({[(3S)-1-(6-methylpyridin-3-yl)piperidin-3-yl][(2-methylpyridin-4-yl)methyl]amino}methyl)-1,4-dihydroquinolin-4-one hydrochloride] | < 1 µM | +++ (+++=ΔTm ≥20° C.) | < 1 µM | – | – | – | –
13 | Cc1ccc(N2CCC[C@H](N(Cc3ccnc(C)c3)Cc3cn(C)c4cc(N5CCC(N)CC5)ccc4c3=O)C2)cn1.Cl [Example 6, 7-(4-Aminopiperidin-1-yl)-1-methyl-3-({[(3S)-1-(6-methylpyridin-3-yl)piperidin-3-yl][(2-methylpyridin-4-yl)methyl]amino}methyl)-1,4-dihydroquinolin-4-one hydrochloride] | 1 to 10 µM | ++ (++=10<ΔTm <20° C.) | 1 to 10 µM | – | – | – | –
14 | Cc1ccc(N2CCC[C@H](N(Cc3ccnc(C)c3)Cc3cn(C4CC4)c4cc(N5CC[C@@H](N)C5)c(F)cc4c3=O)C2)cn1.Cl [Example 12, 7-[(3R)-3-Aminopyrrolidin-1-yl]-1-cyclopropyl-6-fluoro-3-({[(3S)-1-(6-methylpyridin-3-yl)piperidin-3-yl][(2-methylpyridin-4-yl)methyl]amino}methyl)-1,4-dihydroquinolin-4-one hydrochloride] | < 1 µM | +++ (+++=ΔTm ≥20° C.) | < 1 µM | – | – | – | –
15 | Cc1cc(CN(Cc2cn(C)c3ccccc3c2=O)[C@H]2CCCN(c3cccc(N)c3)C2)ccn1.Cl [Example 1, 3-({[(3S)-1-(3-Aminophenyl)piperidin-3-yl][(2-methylpyridin-4-yl)methyl]amino}methyl)-1-methyl-1,4-dihydroquinolin-4-one hydrochloride] | 1 to 10 µM | + (+=ΔTm ≤10° C.) | 1 to 10 µM | – | – | – | –
16 | Cc1ccc(N2CCC[C@H](N(Cc3ccnc(C)c3)Cc3cn(C4CC4)c4cc(N5CC(CO)C5)c(F)cc4c3=O)C2)cn1 [Example 27, 1-cyclopropyl-6-fluoro-7-[3-(hydroxymethyl)azetidin-1-yl]-3-({[(3S)-1-(6-methylpyridin-3-yl)piperidin-3-yl][(2-methylpyridin-4-yl)methyl]amino}methyl)-1,4-dihydroquinolin-4-one] | < 1 µM | +++ (+++=ΔTm ≥20° C.) | < 1 µM | – | – | – | –
17 | Cc1cnc(N2C[C@@H](F)C[C@H](N(Cc3ccnc(C)c3)Cc3cn(C4CC4)c4cc(N5CCC[C@H](O)C5)c(F)cc4c3=O)C2)cn1 [Example 82, 1-cyclopropyl-6-fluoro-3-({[(3S,5S)-5-fluoro-1-(5-methylpyrazin-2-yl)piperidin-3-yl][(2-methylpyridin-4-yl)methyl]amino}methyl)-7-[(3S)-3-hydroxypiperidin-1-yl]-1,4-dihydroquinolin-4-one] | < 1 µM | ++ (++=10<ΔTm <20° C.) | < 1 µM | – | – | – | –
18 | Cc1ccc(N2CCC[C@H](N(Cc3ccnc(C)c3)Cc3cn(C4CC4)c4cc(NCCN)c(F)cc4c3=O)C2)cn1 [Example 8, 7-[(2-Aminoethyl)amino]-1-cyclopropyl-6-fluoro-3-({[(3S)-1-(6-methylpyridin-3-yl)piperidin-3-yl][(2-methylpyridin-4-yl)methyl]amino}methyl)-1,4-dihydroquinolin-4-one] | < 1 µM | +++ (+++=ΔTm ≥20° C.) | < 1 µM | – | – | – | –
